This passage reports GI50 and TGI results from PubChem BioAssay (NCI).

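Step 1: Grow cells in 96-well plates. Step 2: Expose to compound for 48 hours at 5 concentrations. Step 3: Interpolate endpoints linearly; if unreached, use highest concentration. GI50 marks 50% less growth. TGI: concentration producing complete growth inhibition.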 *1 amine or outer side, *2 acyl side, *3 side chain or, on linkers, in order; H or OH if unused. Where a SMILES comes first, the peptide text is derived from it. CO = O=C([*:1])[*:2] Some results are limits rather than exact numbers.

Common to all, as to experiment: inhibition of tumour cell growth, NCI panel, 48 h
Assay [1] relates to IGROV1 ovarian.
The subject of assay [2] is TK-10 renal.
The subject of assay [3] is RXF 393 renal.
Assay [4] concerns RPMI-8226 leukemia.
Assay [5] has as its system OVCAR-8 ovarian.
Assay [6] has as its system UACC-62 melanoma.
Assay [7] concerns K-562 leukemia.
The subject of assay [8] is HL-60(TB) leukemia.
Assay [9] has as its system HT29 colon.
Assay [10] concerns NCI-H226 lung.

With `Cc1cccc(Oc2ccc(Nc3ncnc4ccc(NC(=O)CN5CCN(C)CC5)cc34)cc2Cl)c1`, the GI50 in [1] was 0.673 µM; in assay [2], 0.701 µM; in assay [3] it was 1.61 µM; in [4] it was 1.76 µM; in assay [5], 2.11 µM; in assay [6], 1.84 µM. The GI50 in assay [7] is 1.61 µM. In addition, the TGI came out at 2.38 µM in assay [1]; 2.24 µM in assay [2]; 3.09 µM in assay [3]; 4.39 µM in assay [4]; 5.68 µM in [5]; 3.56 µM in assay [6]. In assay [7], this compound gave a TGI of 4.33 µM.
As for `CC1(C)CC2=NOS3=C2C(=NO3)C1c1ccccn1` (stereo not drawn), the TGI in [1] is 84.5 µM; in assay [2], > 100 µM; in assay [4] it was > 100 µM; in assay [5], > 100 µM; in assay [8], 51.7 µM; in assay [6], > 100 µM. In addition, the TGI was > 100 µM in assay [9] and 62.8 µM in assay [7].
As to `NC1=NN(c2ccccc2)C(=O)C1C(=O)C(=O)Nc1cccc(C(F)(F)F)c1` (stereo not drawn), the TGI in assay [1], in [2], in assay [10], in [4], in assay [5] and in assay [8] was > 100 µM throughout. Moreover, the TGI in [6], in [9] and in assay [7] was > 100 µM each time.
Take `CC(C)C(NC(=O)C(CCCN=C(N)N)NC(=O)NC(Cc1ccccc1)C(=O)O)C(=O)NC(C=O)CCCN=C(N)N` (stereo not drawn) ({Phe-CO}-Arg-Val-Arg-aldehyde; configuration not given here): the GI50 in [1], in [2], in assay [10], in assay [5], in [6] and in assay [9] was > 5 µM throughout. Besides, the GI50 in assay [7] is > 5 µM. Moreover, the TGI in [1], in assay [2], in assay [10], in assay [5], in assay [6] and in assay [9] was > 5 µM throughout. Also, the TGI in assay [7] was > 5 µM.
Turning to `Cc1cc(S(=O)(=O)/N=C(\N)n2nc(C)c(C)c2C)c(SCc2ccccc2)cc1Cl`, the GI50 was > 100 µM in assay [2]; 58.6 µM in assay [3]; > 100 µM in [10]; 2.9 µM in assay [4]; > 100 µM in assay [5]; > 100 µM in [6]. Besides, the GI50 is > 100 µM in assay [9] and 4.15 µM in assay [7]. Moreover, the TGI in assay [2], in [3], in assay [10], in [4], in assay [5] and in [6] was > 100 µM throughout. Also, the TGI in assay [9] and in assay [7] was > 100 µM throughout.
Consider `COc1cc(/C=C/C(=O)CC(=O)/C=C/c2ccc(OC(=O)CCNC34CC5CC(CC(C5)C3)C4)c(OC)c2)ccc1OC(=O)CCNC12CC3CC(CC(C3)C1)C2`, for which the GI50 in assay [1] was 3.52 µM; in assay [2] it was 7.09 µM; in assay [10] it was 11.8 µM; in assay [4], 2.1 µM; in [5], 3.71 µM; in [8] it was 2.27 µM. For the same compound, the GI50 in [6] is 3.5 µM; in [9], 1.75 µM; in [7], 4.41 µM. In addition, the TGI worked out at 8.08 µM in [1]; 22.6 µM in assay [2]; 30.5 µM in [10]; 6.01 µM in assay [4]; 13.4 µM in assay [5]; 9.27 µM in assay [8]. For the same compound, the values for the TGI in assay [6], in assay [9] and in assay [7] were 13 µM, 3.2 µM and > 100 µM, respectively.
Regarding `COC1=CC(C)C2C[C@H]3O[C@H](O)C[C@H]4C(C)C(=O)C(O)C([C@@]2(C)C1=O)[C@@]34C` (stereo partly drawn), the TGI in assay [1], in assay [2], in [3], in [10], in assay [4] and in assay [5] was > 100 µM throughout. Also, the TGI in assay [6], in assay [9] and in assay [7] was > 100 µM throughout.
As to `COc1ccc2c(c1)C(=O)c1c-2c(N2CCN(C(=O)CN(C)C)CC2)nc2ccccc12`, the GI50 in assay [1] was 10 µM; in assay [2], 14.1 µM; in assay [10], 35.7 µM; in [4] it was 10.7 µM; in assay [5], 24.7 µM; in [8] it was 20 µM. In addition, the values for the GI50 in [6], in assay [9] and in assay [7] were 15.3 µM, 2.13 µM and 9.17 µM, respectively. The TGI is 26.4 µM in assay [1]; 37.6 µM in [2]; > 100 µM in assay [10]; 28.6 µM in [4]; > 100 µM in assay [5]; 52.4 µM in assay [8]. The values for the TGI in assay [6], in assay [9] and in assay [7] were 37.3 µM, 12.7 µM and > 100 µM, respectively.
`C=C1C(=O)O[C@H]2[C@H]1CC/C(Cn1cc(Cn3ccc4cc(Cl)ccc43)nn1)=C\CC[C@@]1(C)O[C@@H]21`: the GI50 is 1.42 µM in assay [1]; 1.67 µM in assay [2]; 1.17 µM in assay [3]; 1.59 µM in assay [10]; 0.796 µM in assay [4]; 1.66 µM in assay [5]. Besides, the GI50 in [6] was 1.41 µM; in [9] it was 1.83 µM; in [7], 0.649 µM. Moreover, the TGI in assay [1] was 2.9 µM; in [2] it was 3.11 µM; in [3] it was 2.46 µM; in assay [10] it was 3.03 µM; in assay [4] it was 3.03 µM; in assay [5] it was 3.57 µM. Besides, the TGI in [6] came to 2.78 µM; in assay [9], 4.46 µM; in [7] it was 3.1 µM.
With `CCC(=O)Nc1ccc2c(c1)CN1C(=O)c3ccccc3C1=N2`, the GI50 in [1], in [2], in [10], in assay [4], in assay [5] and in assay [8] was > 100 µM each time. For the same compound, the GI50 in assay [6] and in assay [9] was > 100 µM throughout. Also, the TGI in assay [1], in [2], in assay [10], in assay [4], in [5] and in assay [8] was > 100 µM each time. Moreover, the TGI in assay [6] and in [9] was > 100 µM each time.
As for `CC1=C([Se]CC(OC(=O)[C@@H](CSSC(C)(C)C)NC(=O)C(C)(C)C)C(=O)NCCCCCC(=O)OCc2ccccc2)C(=O)c2ccccc2C1=O` (stereo partly drawn), the GI50 is 1.9 µM in [1]; 2.42 µM in assay [2]; 2.36 µM in [10]; 2.33 µM in [4]; 2.01 µM in [5]; 2.51 µM in [8]. For the same compound, the GI50 in assay [6] is 1.96 µM; in assay [9], 2.69 µM. Besides, the TGI in [1] was 3.66 µM; in assay [2], 4.43 µM; in assay [10] it was 4.63 µM; in assay [4], 6.74 µM; in [5] it was 3.78 µM; in [8], 5.98 µM. Further, the figures for the TGI in assay [6] and in assay [9] were 3.99 µM and 7.34 µM, respectively.
Consider `N#Cc1c(N)nc(N2CCOCC2)c(C#N)c1-c1cccc(O)c1`, for which the GI50 in [1] was 18.7 µM; in [3], 38.1 µM; in assay [10], > 100 µM; in assay [4] it was 48.7 µM; in assay [5] it was > 100 µM; in assay [6], 40.8 µM. In addition, the GI50 in [9] and in [7] was > 100 µM throughout. Further, the TGI was 61.2 µM in [1]; 95.1 µM in [3]; > 100 µM in assay [10]; > 100 µM in assay [4]; > 100 µM in assay [5]; > 100 µM in [6]. The TGI in assay [9] and in [7] was > 100 µM in each case.
`COc1ccc(C(=O)c2ccc(OC)cc2OC)cc1`: the GI50 was 2.61 µM in assay [1]; 5.01 µM in [2]; 1.56 µM in assay [3]; 3.18 µM in assay [4]; 4.55 µM in assay [5]; 2.94 µM in assay [8]. The GI50 in [6] was 5.67 µM; in assay [9], 2.92 µM; in assay [7] it was 0.935 µM. The TGI was 40.9 µM in [1]; > 100 µM in assay [2]; 6.15 µM in assay [3]; 18.7 µM in assay [4]; > 100 µM in assay [5]; > 100 µM in [8]. The TGI in [6] was > 100 µM; in assay [9] it was 24.4 µM; in assay [7], > 100 µM.
For the compound `O=C(CCc1ccc(O)c(O)c1)c1ccc(O)c(O)c1O`, the TGI in assay [1] was > 100 µM; in assay [2] it was 47.3 µM; in assay [10], 36.2 µM; in assay [5], 74.2 µM; in [8], 32.6 µM; in assay [6], > 100 µM. The TGI in [9] amounted to 84 µM; in assay [7], 66 µM.
On to `C/C=C/C/C=C/CCC(=O)C1OC1C(N)=O` (stereo not drawn), for which the TGI in assay [1] stood at 31.8 µM; in assay [2], 25.9 µM; in assay [3] it was 21.7 µM; in [5], 26.7 µM; in assay [6], 29.3 µM; in assay [9] it was 33.1 µM. The compound also returned a TGI in [7] of 36.8 µM.
For the compound `CCOC(=O)c1ccc(C(O)CC(=O)OC(C)(C)C)[nH]1` (stereo not drawn), the GI50 in assay [1] was 12.4 µM; in [2] it was 58.4 µM; in assay [10] it was 94.1 µM; in [4] it was > 100 µM; in [5], 56.7 µM; in assay [6], 26.5 µM. Moreover, the figures for the GI50 in [9] and in [7] were 59 µM and 52.6 µM, respectively. Also, the TGI is 30.4 µM in assay [1]; > 100 µM in assay [2]; > 100 µM in assay [10]; > 100 µM in assay [4]; > 100 µM in assay [5]; 81.3 µM in [6]. Also, the TGI in [9] and in assay [7] was > 100 µM in each case.
Turning to `O=C1OC2(c3ccccc31)c1cc(I)c(O)c(I)c1Oc1c2cc(I)c(O)c1I`, the TGI in [1], in assay [2], in [3], in [10], in [4] and in [5] was > 100 µM in each case. The TGI in assay [6], in [9] and in assay [7] was > 100 µM each time.
Consider `CCC[CH2][Sn]([CH2]CCC)([O]C(=O)c1cccc(F)c1F)[O][Sn]([CH2]CCC)([CH2]CCC)[O]C(=O)c1cccc(F)c1F`, for which the GI50 is 0.781 µM in [1]; 0.206 µM in assay [2]; 0.0216 µM in assay [3]; 0.317 µM in [10]; 0.0288 µM in assay [4]; 0.285 µM in [5]. The GI50 in assay [6] is 0.173 µM; in assay [9], 0.812 µM; in [7] it was 0.0371 µM. The TGI in assay [1] was determined as 2.15 µM; in assay [2] it was 0.562 µM; in assay [3], 0.105 µM; in assay [10], 0.851 µM; in [5], 1.16 µM; in assay [6] it was 0.423 µM. The values for the TGI in [9] and in [7] were 2.07 µM and > 100 µM, respectively.
Regarding `COc1ccc2c(c1)/C(=C/c1c(-c3ccc(C)cc3)nc3sc(C)cn13)C(=O)N2`, the GI50 is 32.9 µM in assay [1]; 7.93 µM in assay [2]; 20.1 µM in assay [10]; 12.4 µM in assay [5]; 4.85 µM in [8]; 13.1 µM in assay [6]. In addition, the GI50 in assay [9] is 8.92 µM; in assay [7], 4.95 µM. The TGI in assay [1] is > 100 µM; in [2] it was > 100 µM; in assay [10], 95.9 µM; in assay [5], > 100 µM; in assay [8], 30.8 µM; in [6], 32.5 µM. In addition, the TGI in assay [9] and in assay [7] was > 100 µM throughout.
